From the METLIN SMRT retention time set (Domingo-Almenara et al. 2019)

Test: gradient 5% acetonitrile 3 min, to 50% in 2 min, to 85% in 15 min, held 3 min, 100 µL/min
Conditions: column: Zorbax Extend-C18 2.1 x 50 mm; eluents: water / acetonitrile, 0.1% formic acid
Procedure, shortened: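 Data were gathered over 3 months by HPLC coupled to a quadrupole time-of-flight mass spectrometer, operated in positive and negative ionization mode. Mixtures of ~100 pure standards ran on a Zorbax Extend-C18 column (2.1 × 50 mm, 1.8 μm) at 100 μL/min, with water and acetonitrile each containing 0.1% formic acid and dead and dwell volumes of 40 μL and 900 μL. Retention time was read from adduct peaks picked by computer and checked manually.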

Compound	RP-LC retention time
CCN1CCN(CC2CCN(S(=O)(=O)c3ccc4c(c3)CCC4)CC2)CC1	624 s
CCOC(=O)C1CCN(c2ccc3nnc(CCc4nc(-c5ccc(F)cc5)no4)n3n2)CC1	966 s
CC(C)(Cc1ccc2ccccc2c1)NC[C@@H](O)COc1cccc(Cl)c1C#N	857 s
Cc1sc(NC(=O)CCc2ccccc2)nc1-c1ccc2c(c1)N(C)C(=O)CO2	1010 s
Cc1cc(CNC(=O)C2CCCC2)c(C)o1	762 s
CN(C(=O)c1cc2c(=O)n(C)c(=O)n(C)c2s1)c1cccc(Cl)c1	827 s
Cc1noc(C)c1S(=O)(=O)N1CCC(C(=O)NCc2csc(-c3ccccc3)n2)CC1	870 s
CCCNS(=O)(=O)c1cc(-c2cc(C(F)(F)F)on2)sc1C	1090 s
O=C(CN1C(=O)CC(c2ccccc2)S(=O)(=O)c2ccccc21)NC1CCCC1 (stereo unspecified)	831 s
CC1Oc2ccc(-c3csc(NC(=O)c4cccs4)n3)cc2NC1=O (stereo unspecified)	839 s
CCOC(=O)N1CCN(C(=O)CSc2ccc(-c3ccco3)nn2)CC1	661 s
CCCCOC(=O)COc1cc(O)c2c(=O)cc(-c3ccccc3)oc2c1	1230 s
CCOCCCNC(=O)C1CCN(S(=O)(=O)c2ccc3c(c2)CCCC(=O)N3)CC1	656 s
CCc1ccc(S(=O)(=O)N2CCCC(Cn3c(C)nc4cccnc43)C2)cc1 (stereo unspecified)	769 s
CC(C)(C)c1ccc(C(=O)NCCCn2ncccc2=O)cc1	731 s
CCC(C)NC(=O)C1CCN(S(=O)(=O)c2c(C)nn(-c3ccccc3)c2C)CC1 (stereo unspecified)	830 s
COC(=O)C(C)NC(=O)N1CCN(c2nc3ccccc3n3cccc23)CC1 (stereo unspecified)	605 s
CCc1nc(-c2ccc3c(c2)CCN3C(=O)c2ccco2)no1	914 s
CN1CCCn2nc(C3CCN(C(=O)CSc4ccncc4)CC3)cc2C1=O	569 s
Cc1ccc(NC(=O)c2cccc([N+](=O)[O-])c2)c(C)c1	830 s

Compound	RP-LC retention time
Cc1c(Cl)cccc1NC(=O)NCC(c1cccnc1)c1c[nH]c2ccccc12 (stereo unspecified)	706 s
CN(C)C1(CC2CC2)CCN(C(=O)c2ccsc2)CC1	578 s
CCCN1C(=O)COc2cc(-c3noc(C(=O)NC4CC4)n3)ccc21	841 s
Cn1c(=O)c(N2CCC(NC(=O)NCCc3ccccc3)CC2)nc2ccccc21	857 s
O=C(c1ccco1)N1CCC2(CC1)NC(=O)N(Cc1ccc(F)cc1)C2=O	692 s
O=C(NC1CCCCCC1)c1ccc2ccnc(N3CCN(c4ccccc4)CC3)c2c1	922 s
CC(C)Cc1nn(-c2ccccc2)cc1CN1CC(=O)NCC12CCCC2	720 s
COc1cc(=O)n(-c2ccccc2C)nc1C(=O)Nc1nc2ccc(C)cc2s1	861 s
Cc1cccc(N2CCN(C(=O)c3[nH]c(C)c(S(=O)(=O)N4CCOCC4)c3C)CC2C)c1 (stereo unspecified)	752 s
Cc1ccc(N2N=C(C(=O)N3CCN(C(C)C)CC3)S(=O)(=O)c3cccnc32)cc1	649 s
Cc1nnc(C2CCCCCN2C(=O)Cc2c(C)noc2C)o1 (stereo unspecified)	658 s
CSc1cccc(NC(=O)CC2COc3ccccc3NC2=O)c1 (stereo unspecified)	742 s
Cc1ccc(-n2cc3c(c(C(=O)NC4CC4)c2=O)CC(C)(C)CC3=O)cc1	867 s
CCc1cc(C(=O)N2CCN(CC)CC2)nc2cc(-c3ccsc3)nn12	664 s
COc1ccc(NC(=O)c2sc3[nH]c(=O)c(C(=O)O)cc3c2N)c(OC)c1	681 s
CCOCC(=O)Nc1cccc(OCc2nnc(-c3ccc(OC)cc3)o2)c1	830 s
COc1cccc(CNC2CCN(c3ccc(C(=O)NC4CC4)cn3)C2)c1OC (stereo unspecified)	562 s
Cc1cccc(S(=O)(=O)N2C[C@H](c3nc(-c4ccncc4)no3)[C@@H](C)C2)c1	939 s
Cc1ccc(C)c(CN2CCC(CNC(=O)C3CCN(c4cc(=O)n(C)c(=O)n4C)CC3)CC2)c1	618 s
CCC1(O)CCC12CCN(C(=O)c1cccs1)CC2 (stereo unspecified)	718 s

Compound	RP-LC retention time
c1ccc(-c2nc(-c3ccc(-n4ccnc4)nc3)no2)cc1	720 s
Cc1nc2cc(-c3noc(-c4ccc(C#N)cc4)n3)ccc2n(C2CCCC2)c1=O	691 s
CCCn1ccc2oc(C)c(C(=O)NCc3c(C)cc(C)cc3C)c2c1=O	1200 s
Cc1cc2n(n1)CCC(=O)N2CCCC(=O)N1CCOCC1	585 s
CCCOC(=O)C1=C(C)NC2=C(C(=O)C(C(=O)OC)C(C)C2)C1c1cccc(OC)c1 (stereo unspecified)	934 s
Cc1ccc(-c2nc3cnccn3c2NCCC(=O)NC(C)C)cc1	618 s
Cc1nn2c(CNC(=O)Cc3ccsc3)c(-c3ccccc3)nc2s1	866 s
CCOc1ccc(C2Cn3nnc(-c4nc(-c5ccc(C)cc5)no4)c3CO2)cc1 (stereo unspecified)	1250 s
CCOc1ccccc1NC(=O)N(Cc1cccs1)C1CCN(CC)CC1	698 s
O=S(=O)(Nc1cccc(Cl)c1)c1c[nH]c2ncccc12	765 s
O=S(=O)(CCc1noc(-c2cc(F)cc(F)c2)n1)c1ccccc1	939 s
CCc1ccc(N2CC(c3noc(-c4ccccc4Cl)n3)CC2=O)cc1 (stereo unspecified)	1050 s
Cc1ccc(-n2nc(C)c3sc(N4CCCC(C(=O)NC(C)c5ccccc5)C4)nc32)cc1 (stereo unspecified)	1190 s
Cc1cnc(-c2ccccc2)n1CCNS(=O)(=O)c1cccc(F)c1	633 s
O=S(=O)(c1ccccc1)N1CC(F)(F)C[C@H]1COc1cccnc1	690 s
C=CCNC(=O)Cc1cn2cc(Br)ccc2n1	557 s
O=C(c1cccc(N2C(=O)CCS2(=O)=O)c1)N1CCN(c2ccccn2)CC1	726 s
COCC(=O)N1CCCN(C2=NS(=O)(=O)C(c3ccccc3)=C2C)CC1	662 s
CCc1ccccc1NC(=O)Cc1csc2nc(-c3ccccc3)cn12	845 s

The next lines start with the values.

RP-LC retention time	Compound
874 s	Cc1cc(C)cc(NC(=O)NC2CCN(c3ccc(F)c(C)c3)C2=O)c1 (stereo unspecified)
795 s	O=C(Cn1c(=O)c2cccn2c2ccc(F)cc21)N1CCCCC1
841 s	COc1ccc2[nH]cc(CCN3CC(C(=O)Nc4ccc5c(c4)CCC5)CC3=O)c2c1 (stereo unspecified)
800 s	CC(=O)N1CCc2ccc(NC(=O)Cc3ccc(-c4ccccc4)cc3)cc2C1
936 s	Cc1ccc(CNC(=O)C2(c3ccc(NC(=O)C(C)C)cc3)CCC2)cc1C
926 s	CCn1nccc1C(=O)Nc1nc(-c2ccc(OC)cc2OC)cs1
812 s	COc1ccc(Cl)cc1C(=O)N1CCN(c2cc(-c3cccs3)[nH]n2)CC1
1100 s	CCCn1cc(C(=O)Nc2ccc(OC)cc2)c(=O)c2ccc(C)nc21
750 s	Cc1cc(=O)n(CC(=O)Nc2ccc(Br)cc2F)c(N2CCC(C)CC2)n1
617 s	CN(C)C(=O)c1n[nH]c2c1CN(C(=O)c1cc(F)ccc1F)CC2
650 s	CCc1nc(N)n(CC(=O)Nc2ccc(C)c(C)c2)c(=O)c1C
607 s	Cn1c(CN2CCN(C(=O)Nc3ccc4c(c3)OCO4)CC2)nc2cc(C(=O)N3CCCC3)ccc21
748 s	O=C(NCc1ccc(F)cc1Cl)C1CCCN(c2cnc3nccnc3c2)C1 (stereo unspecified)
890 s	O=C(NCCC1=CCCCC1)c1cccc(CN2C(=O)C3CCCN3C(=O)c3ccccc32)c1 (stereo unspecified)
770 s	O=S(=O)(Nc1cccn2ncnc12)c1ccc(Cl)cc1
725 s	CN1C(=O)c2cccnc2Sc2cc(NC(=O)c3ccsc3)ccc21

RP-LC retention time	Compound
579 s	O=C(NCCN1CCCCC1)c1cn2cc(Cl)ccc2n1
798 s	CC(=O)N1CCCc2ccc(NC(=O)COc3ccc(F)cc3)cc21
971 s	Cc1nc(-c2csc(S(=O)(=O)N3CCC(C(=O)NCCC4=CCCCC4)CC3)c2)no1
1070 s	Cc1ccccc1NC(=O)N1CCC2(CC1)NC(=O)c1cc(F)ccc1N2C
552 s	CCn1ccnc1N1CCN(CC(=O)Nc2cc(Cl)ccc2OC)CC1
811 s	CC(C)(C)NC(=O)N1CCC(CNC(=O)C(=O)Nc2cc(F)ccc2F)CC1
1300 s	COc1ccc2c(c1)-c1nc(NC(=O)c3cc(Cl)ccc3OC)sc1CC2
643 s	COc1cc(NC(=O)Cn2nc3nc(N4CCCC4)ccn3c2=O)cc(OC)c1
913 s	O=C(NC1CCN(c2cc(-c3ccc(Cl)cc3)[nH]n2)C1)c1ccc(Br)cc1 (stereo unspecified)
673 s	O=C(Nc1cccc(-c2nnc3n2CCCC3)c1)C1CCCC1
717 s	COc1ccc(Cl)cc1-n1c(SCC(=O)N2CCC(C(N)=O)CC2)nc2ccccc2c1=O
773 s	COc1ccc(NS(=O)(=O)c2cc3n(c2)CCCN(C(C)C)C3=O)cc1Cl
721 s	O=C(NCc1ccco1)C1CCCN(c2nc3ccccc3[nH]c2=O)C1 (stereo unspecified)
648 s	O=C(Nc1ccc(F)c(Cl)c1)c1cn2c(n1)CCCC2
581 s	O=C(NCc1ccc(N2CCOCC2)nc1)c1ccccc1Br
991 s	CC1CCCN(C(=O)c2cc3c(s2)CCN(C(=O)c2ccc(Cl)cc2)C3)C1 (stereo unspecified)
